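Each compound was tested at five concentrations against cells in 96-well plates for 48 hours. At the TGI there is no net growth.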
How the values were obtained:
Experiment in all cases: NCI tumour cell line growth inhibition, 48 h
K-562 leukemia = system: K-562 leukemia
HL-60(TB) leukemia = system: HL-60(TB) leukemia
TK-10 renal = system: TK-10 renal
A498 renal = system: A498 renal
NCI/ADR-RES ovarian = system: NCI/ADR-RES ovarian
RXF 393 renal = system: RXF 393 renal
CCRF-CEM leukemia = system: CCRF-CEM leukemia
SK-MEL-2 melanoma = system: SK-MEL-2 melanoma
EKVX NSCLC = system: EKVX NSCLC
COLO 205 colon = system: COLO 205 colon
HS 578T breast = system: HS 578T breast
MALME-3M melanoma = system: MALME-3M melanoma
PC-3 prostate = system: PC-3 prostate
NCI-H23 lung = system: NCI-H23 lung
BT-549 breast = system: BT-549 breast
ACHN renal = system: ACHN renal
MDA-N = system: MDA-N
HCC-2998 colon = system: HCC-2998 colon
SNB-75 CNS = system: SNB-75 CNS
HOP-92 NSCLC = system: HOP-92 NSCLC
NCI-H460 lung = system: NCI-H460 lung
KM12 colon = system: KM12 colon
SF-268 CNS = system: SF-268 CNS
HCT-116 colon = system: HCT-116 colon
HCT-15 colon = system: HCT-15 colon
UACC-257 melanoma = system: UACC-257 melanoma
UO-31 renal = system: UO-31 renal
OVCAR-5 ovarian = system: OVCAR-5 ovarian
U251 CNS = system: U251 CNS
MDA-MB-231 breast = system: MDA-MB-231 breast
SW-620 colon = system: SW-620 colon
A549 NSCLC = system: A549 NSCLC
OVCAR-4 ovarian = system: OVCAR-4 ovarian
SF-295 CNS = system: SF-295 CNS
OVCAR-3 ovarian = system: OVCAR-3 ovarian
SN12C renal = system: SN12C renal
LOX IMVI melanoma = system: LOX IMVI melanoma
CAKI-1 renal = system: CAKI-1 renal
SNB-19 CNS = system: SNB-19 CNS
SK-MEL-28 melanoma = system: SK-MEL-28 melanoma
MCF7 breast = system: MCF7 breast
OVCAR-8 ovarian = system: OVCAR-8 ovarian
SF-539 CNS = system: SF-539 CNS
SK-MEL-5 melanoma = system: SK-MEL-5 melanoma
HT29 colon = system: HT29 colon
M14 melanoma = system: M14 melanoma
DU-145 prostate = system: DU-145 prostate
UACC-62 melanoma = system: UACC-62 melanoma
RPMI-8226 leukemia = system: RPMI-8226 leukemia
NCI-H226 lung = system: NCI-H226 lung
786-0 renal = system: 786-0 renal
HOP-62 NSCLC = system: HOP-62 NSCLC
SK-OV-3 ovarian = system: SK-OV-3 ovarian
NCI-H522 lung = system: NCI-H522 lung
T-47D breast = system: T-47D breast
IGROV1 ovarian = system: IGROV1 ovarian
MOLT-4 leukemia = system: MOLT-4 leukemia
SR leukemia = system: SR leukemia
MDA-MB-435 = system: MDA-MB-435

Cc1ccc2ccccc2c1CSc1nc(N)nc2c1ncn2CC(C)C
TGI (K-562 leukemia): > 100 µM
TGI (HL-60(TB) leukemia): > 100 µM
TGI (TK-10 renal): > 100 µM
TGI (A498 renal): 99.6 µM
TGI (NCI/ADR-RES ovarian): > 100 µM
TGI (RXF 393 renal): > 90.7 µM
TGI (CCRF-CEM leukemia): > 95.5 µM
TGI (SK-MEL-2 melanoma): > 73.9 µM
TGI (EKVX NSCLC): > 100 µM
TGI (COLO 205 colon): 20.2 µM
TGI (HS 578T breast): > 100 µM
TGI (MALME-3M melanoma): > 62.2 µM
TGI (PC-3 prostate): > 89.9 µM
TGI (NCI-H23 lung): > 100 µM
TGI (BT-549 breast): > 100 µM
TGI (ACHN renal): > 100 µM
TGI (MDA-N): > 100 µM
TGI (HCC-2998 colon): > 71.6 µM
TGI (SNB-75 CNS): > 100 µM
TGI (HOP-92 NSCLC): > 100 µM
TGI (NCI-H460 lung): > 96.2 µM
TGI (KM12 colon): > 100 µM
TGI (SF-268 CNS): > 100 µM
TGI (HCT-116 colon): > 100 µM
TGI (HCT-15 colon): > 100 µM
TGI (UACC-257 melanoma): > 87.3 µM
TGI (UO-31 renal): 13.2 µM
TGI (OVCAR-5 ovarian): > 100 µM
TGI (U251 CNS): > 100 µM
TGI (MDA-MB-231 breast): > 100 µM
TGI (SW-620 colon): > 100 µM
TGI (A549 NSCLC): > 100 µM
TGI (OVCAR-4 ovarian): > 100 µM
TGI (SF-295 CNS): > 100 µM
TGI (OVCAR-3 ovarian): > 100 µM
TGI (SN12C renal): > 100 µM
TGI (LOX IMVI melanoma): > 100 µM
TGI (CAKI-1 renal): > 48.9 µM
TGI (SNB-19 CNS): > 100 µM
TGI (SK-MEL-28 melanoma): > 100 µM
TGI (MCF7 breast): > 63.9 µM
TGI (OVCAR-8 ovarian): > 100 µM
TGI (SF-539 CNS): > 44.8 µM
TGI (SK-MEL-5 melanoma): 20.3 µM
TGI (HT29 colon): > 100 µM
TGI (M14 melanoma): > 80.8 µM
TGI (DU-145 prostate): > 100 µM
TGI (UACC-62 melanoma): > 100 µM
TGI (RPMI-8226 leukemia): > 73.3 µM
TGI (NCI-H226 lung): 72.7 µM
TGI (786-0 renal): > 100 µM
TGI (HOP-62 NSCLC): > 100 µM
TGI (SK-OV-3 ovarian): > 100 µM
TGI (NCI-H522 lung): 96.9 µM
TGI (T-47D breast): > 47.8 µM
TGI (IGROV1 ovarian): > 100 µM
TGI (MOLT-4 leukemia): 29.7 µM
TGI (SR leukemia): 50.6 µM
TGI (MDA-MB-435): > 84.4 µM

C[Si](C)(C)OC1(C#N)c2ccccc2CCCC12CCCC2 (centres undefined)
TGI (K-562 leukemia): > 100 µM
TGI (HL-60(TB) leukemia): 39.2 µM
TGI (TK-10 renal): > 100 µM
TGI (A498 renal): > 100 µM
TGI (NCI/ADR-RES ovarian): > 100 µM
TGI (RXF 393 renal): 88.1 µM
TGI (CCRF-CEM leukemia): 46 µM
TGI (SK-MEL-2 melanoma): 45.7 µM
TGI (EKVX NSCLC): > 100 µM
TGI (COLO 205 colon): > 100 µM
TGI (HS 578T breast): > 100 µM
TGI (MALME-3M melanoma): > 100 µM
TGI (PC-3 prostate): > 100 µM
TGI (NCI-H23 lung): > 100 µM
TGI (BT-549 breast): > 100 µM
TGI (ACHN renal): > 100 µM
TGI (MDA-N): > 100 µM
TGI (HCC-2998 colon): 44 µM
TGI (SNB-75 CNS): > 100 µM
TGI (HOP-92 NSCLC): 89.9 µM
TGI (NCI-H460 lung): > 100 µM
TGI (KM12 colon): > 100 µM
TGI (SF-268 CNS): > 100 µM
TGI (HCT-116 colon): > 100 µM
TGI (HCT-15 colon): > 100 µM
TGI (UACC-257 melanoma): 58.3 µM
TGI (UO-31 renal): > 100 µM
TGI (OVCAR-5 ovarian): > 100 µM
TGI (U251 CNS): 92.2 µM
TGI (MDA-MB-231 breast): > 100 µM
TGI (SW-620 colon): > 100 µM
TGI (A549 NSCLC): > 100 µM
TGI (OVCAR-4 ovarian): > 100 µM
TGI (SF-295 CNS): > 100 µM
TGI (OVCAR-3 ovarian): > 100 µM
TGI (SN12C renal): > 100 µM
TGI (LOX IMVI melanoma): 49.6 µM
TGI (CAKI-1 renal): > 100 µM
TGI (SNB-19 CNS): > 100 µM
TGI (SK-MEL-28 melanoma): > 100 µM
TGI (MCF7 breast): > 100 µM
TGI (OVCAR-8 ovarian): > 100 µM
TGI (SF-539 CNS): > 100 µM
TGI (SK-MEL-5 melanoma): 56.2 µM
TGI (HT29 colon): > 100 µM
TGI (M14 melanoma): > 100 µM
TGI (DU-145 prostate): > 100 µM
TGI (UACC-62 melanoma): > 100 µM
TGI (RPMI-8226 leukemia): 51.5 µM
TGI (NCI-H226 lung): > 100 µM
TGI (786-0 renal): > 100 µM
TGI (HOP-62 NSCLC): > 100 µM
TGI (SK-OV-3 ovarian): > 100 µM
TGI (NCI-H522 lung): 77.7 µM
TGI (T-47D breast): 85.5 µM
TGI (IGROV1 ovarian): > 100 µM
TGI (MOLT-4 leukemia): 61.7 µM
TGI (SR leukemia): > 100 µM
TGI (MDA-MB-435): > 100 µM

CCOc1ccccc1N=NC1C(=O)N(C(=O)CC(=O)Nc2ccccc2C)N=C1C (centres undefined)
TGI (HL-60(TB) leukemia): > 100 µM
TGI (TK-10 renal): > 100 µM
TGI (A498 renal): > 100 µM
TGI (NCI/ADR-RES ovarian): > 100 µM
TGI (RXF 393 renal): 89.4 µM
TGI (CCRF-CEM leukemia): > 100 µM
TGI (SK-MEL-2 melanoma): > 100 µM
TGI (EKVX NSCLC): 43.7 µM
TGI (COLO 205 colon): > 100 µM
TGI (HS 578T breast): 31.5 µM
TGI (MALME-3M melanoma): > 100 µM
TGI (PC-3 prostate): > 100 µM
TGI (NCI-H23 lung): > 100 µM
TGI (BT-549 breast): > 100 µM
TGI (ACHN renal): > 100 µM
TGI (MDA-N): > 100 µM
TGI (HCC-2998 colon): > 100 µM
TGI (SNB-75 CNS): 54.6 µM
TGI (HOP-92 NSCLC): 40.8 µM
TGI (NCI-H460 lung): > 100 µM
TGI (KM12 colon): > 100 µM
TGI (SF-268 CNS): 63.6 µM
TGI (HCT-116 colon): > 100 µM
TGI (HCT-15 colon): > 100 µM
TGI (UO-31 renal): 63.6 µM
TGI (OVCAR-5 ovarian): > 100 µM
TGI (U251 CNS): 49.1 µM
TGI (MDA-MB-231 breast): > 100 µM
TGI (SW-620 colon): > 100 µM
TGI (A549 NSCLC): > 100 µM
TGI (OVCAR-4 ovarian): > 100 µM
TGI (SF-295 CNS): 36 µM
TGI (OVCAR-3 ovarian): > 100 µM
TGI (SN12C renal): > 100 µM
TGI (LOX IMVI melanoma): > 100 µM
TGI (CAKI-1 renal): > 100 µM
TGI (SK-MEL-28 melanoma): > 100 µM
TGI (MCF7 breast): > 100 µM
TGI (OVCAR-8 ovarian): > 100 µM
TGI (SF-539 CNS): > 100 µM
TGI (SK-MEL-5 melanoma): > 100 µM
TGI (HT29 colon): > 100 µM
TGI (M14 melanoma): > 100 µM
TGI (DU-145 prostate): > 100 µM
TGI (UACC-62 melanoma): > 100 µM
TGI (RPMI-8226 leukemia): > 100 µM
TGI (NCI-H226 lung): > 100 µM
TGI (786-0 renal): > 100 µM
TGI (HOP-62 NSCLC): 41.5 µM
TGI (SK-OV-3 ovarian): 56.1 µM
TGI (NCI-H522 lung): > 100 µM
TGI (T-47D breast): > 100 µM
TGI (IGROV1 ovarian): > 100 µM
TGI (MOLT-4 leukemia): > 100 µM
TGI (SR leukemia): > 100 µM
TGI (MDA-MB-435): > 100 µM

— PubChem BioAssay (NCI)
